Data taken from the SangsterLogP compilation.

assay: method code SF-HPLC, from DOI: 10.1002/qsar.19910100205; conditions: pH 3.5

| Structure (SMILES) | logD |
| --- | --- |
| O=C1NC(=O)N(c2ccccc2)C1=O | 0.6 |
| O=C1CC(=O)C(c2ccccc2)O1 (configuration not stated) | 1.07 |
| O=C1CS(=O)(=O)C(c2ccccc2)N1 (configuration not stated) | 0.18 |
| O=C1CN(c2ccccc2)C(=O)N1 | 0.83 |
| O=C1CN(Cc2ccccc2)C(=O)N1 | 0.76 |
| O=C1NC(=O)C(Cc2ccccc2)O1 (configuration not stated) | 1.2 |
| O=C1CNC(=O)N1c1ccccc1 | 0.04 |
| O=C1NC(=O)C(Cc2ccccc2)S1 (configuration not stated) | 1.98 |
| O=C1NC(=O)N(Cc2ccccc2)C1=O | 1.19 |
| O=C1NC(=O)C(c2ccccc2)O1 (configuration not stated) | 1.09 |
| O=C1CC(=O)N(c2ccccc2)O1 | 0.54 |
| O=C1NC(=O)C(Cc2ccccc2)N1 (configuration not stated) | 0.6 |
| O=c1[nH]c(=O)n(-c2ccccc2)o1 | 1.68 |
| NS(=O)(=O)NC(=O)Cc1ccccc1 | 0.31 |
| O=C1CC(=O)N(Cc2ccccc2)C1 | 0.76 |
| O=C1CC(=O)C(c2ccccc2)N1 (configuration not stated) | 0.48 |
| CC1(COc2ccc(CC3SC(=O)NC3=O)cc2)CCCCC1 (configuration not stated) | 3.57 |
